ChEMBL document CHEMBL4118122, “Identification and biological evaluation of thiazole-based inverse agonists of RORγt” (Bioorg Med Chem Lett, 2018)
In brackets after ≈: the same amount, converted by molar mass.

How the values were obtained:
[1] = Half life in rat microsomes; assay type: ADME, Microsome
Cytochrome P450 2C8 = biological target: T1, Cytochrome P450 2C8 (Homo sapiens, UniProt P10632); assay: Inhibition of CYP2C8 (unknown origin); assay type: ADME
T1 sequence (P10632 whole entry): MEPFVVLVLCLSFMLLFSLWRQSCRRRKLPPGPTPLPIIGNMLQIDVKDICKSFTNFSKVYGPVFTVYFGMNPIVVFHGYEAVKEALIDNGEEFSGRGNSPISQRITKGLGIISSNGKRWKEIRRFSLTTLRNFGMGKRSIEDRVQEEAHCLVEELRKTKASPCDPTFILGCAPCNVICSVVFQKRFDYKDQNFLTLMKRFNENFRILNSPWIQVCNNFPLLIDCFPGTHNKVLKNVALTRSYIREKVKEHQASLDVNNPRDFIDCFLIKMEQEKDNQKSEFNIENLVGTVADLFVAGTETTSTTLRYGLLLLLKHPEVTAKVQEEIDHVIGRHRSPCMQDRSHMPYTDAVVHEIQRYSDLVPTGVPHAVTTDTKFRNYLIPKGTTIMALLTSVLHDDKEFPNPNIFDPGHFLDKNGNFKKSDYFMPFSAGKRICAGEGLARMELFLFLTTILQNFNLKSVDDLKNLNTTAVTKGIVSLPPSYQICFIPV

[2] = Half life in human microsomes; assay type: ADME, Microsome
Cytochrome P450 2C19 = Cytochrome P450 2C19 (Homo sapiens, UniProt P33261); assay: Inhibition of CYP2C19 (unknown origin); assay type: ADME
Cytochrome P450 3A4 = Cytochrome P450 3A4 (Homo sapiens, UniProt P08684); assay: Inhibition of CYP3A4 (unknown origin); assay type: ADME
Cytochrome P450 2C9 = Cytochrome P450 2C9 (Homo sapiens, UniProt P11712); assay: Inhibition of CYP2C9 (unknown origin); assay type: ADME
Cytochrome P450 2D6 = Cytochrome P450 2D6 (Homo sapiens, UniProt P10635); assay: Inhibition of CYP2D6 (unknown origin); assay type: ADME
[3] = biological target: Voltage-gated inwardly rectifying potassium channel KCNH2 (Homo sapiens, UniProt Q12809); assay: Inhibition of human ERG
[4] = Thermodynamic solubility of the compound in 30 mM phosphate buffer at 10 mM at pH 7 after 2 to 5 days by UV-HPLC analysis; assay type: physicochemical; settings: read-out: Therm_solubility
Cytochrome P450 1A2 = biological target: T2, Cytochrome P450 1A2 (Homo sapiens, UniProt P05177); assay: Inhibition of CYP1A2 (unknown origin); assay type: ADME
T2 sequence (P05177 whole entry): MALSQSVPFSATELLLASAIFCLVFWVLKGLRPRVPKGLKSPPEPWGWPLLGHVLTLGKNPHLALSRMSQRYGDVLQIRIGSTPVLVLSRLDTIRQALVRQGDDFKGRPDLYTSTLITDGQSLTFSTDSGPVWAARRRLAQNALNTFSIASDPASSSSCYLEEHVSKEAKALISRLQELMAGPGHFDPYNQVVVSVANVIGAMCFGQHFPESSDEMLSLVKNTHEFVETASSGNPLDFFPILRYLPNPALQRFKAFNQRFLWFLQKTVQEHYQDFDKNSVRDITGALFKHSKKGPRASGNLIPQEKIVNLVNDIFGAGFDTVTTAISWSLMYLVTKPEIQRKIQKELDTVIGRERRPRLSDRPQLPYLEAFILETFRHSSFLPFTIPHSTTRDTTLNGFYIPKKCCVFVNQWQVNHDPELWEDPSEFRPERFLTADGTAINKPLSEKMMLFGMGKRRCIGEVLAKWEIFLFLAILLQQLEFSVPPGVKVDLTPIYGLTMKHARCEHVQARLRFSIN

[5] = Oral bioavailability in Sprague-Dawley rat at 2.5 mg/kg; assay type: ADME, organism-based; settings: in vivo
PXR (NR1I2) [6] = biological target: T3, PXR (NR1I2) (Homo sapiens, UniProt O75469); assay: […] at PXR LBD (unknown origin) expressed in HEK293 cells […] at 10 uM after 16 hrs by luciferase reporter gene assay relative to rifampicin; assay type: ADME, cell-based; settings: HEK293 cells expressing PXR LBD, read-out: Efficacy
T3 sequence (O75469 whole entry): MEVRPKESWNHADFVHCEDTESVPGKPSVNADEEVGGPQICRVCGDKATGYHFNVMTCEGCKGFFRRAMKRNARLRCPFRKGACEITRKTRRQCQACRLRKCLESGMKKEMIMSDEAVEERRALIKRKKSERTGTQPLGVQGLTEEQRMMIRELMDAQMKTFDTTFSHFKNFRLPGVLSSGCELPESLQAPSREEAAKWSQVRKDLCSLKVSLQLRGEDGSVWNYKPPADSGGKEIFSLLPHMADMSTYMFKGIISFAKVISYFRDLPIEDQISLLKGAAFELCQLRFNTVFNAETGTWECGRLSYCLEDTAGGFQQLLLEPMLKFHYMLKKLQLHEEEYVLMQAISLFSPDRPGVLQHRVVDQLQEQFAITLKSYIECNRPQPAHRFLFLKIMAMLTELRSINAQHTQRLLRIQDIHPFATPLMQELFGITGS

[7] = Thermodynamic solubility of the compound in fasted state simulated intestinal […] after 2 to 5 days by UV-HPLC analysis; assay type: physicochemical; settings: read-out: Therm_solubility
[8] = AUC (0 to infinity) in Sprague-Dawley rat at 2.5 mg/kg, po; assay type: ADME, organism-based; parameters: dose 2.5 mg/kg, time infinity, route oral; settings: in vivo
[9] = Terminal half life in Sprague-Dawley rat at 2.5 mg/kg, po; assay type: ADME, organism-based; settings: in vivo, read-out: beta t1/2 (converted)
[10] = Tmax in Sprague-Dawley rat at 2.5 mg/kg, po; assay type: ADME, organism-based; settings: in vivo
[11] = Half life in Sprague-Dawley rat at 0.5 mg/kg, iv; assay type: ADME, organism-based; settings: in vivo
[12] = Cmax in Sprague-Dawley rat at 2.5 mg/kg, po; assay type: ADME, organism-based; parameters: dose 2.5 mg/kg, route oral; settings: in vivo
PXR (NR1I2) [13] = biological target: T3, PXR (NR1I2); assay: […] at PXR LBD (unknown origin) expressed in HEK293 cells […] at 1 uM after 16 hrs by luciferase reporter gene assay relative to rifampicin; assay type: ADME, cell-based; settings: HEK293 cells expressing PXR LBD, read-out: Efficacy
[14] = Initial plasma concentration in Sprague-Dawley rat at 0.5 mg/kg, iv; assay type: ADME, organism-based
[15] = Volume of distribution at steady state in Sprague-Dawley rat at 0.5 mg/kg, iv; assay type: ADME, organism-based; settings: in vivo, read-out: Vdss
Rattus norvegicus = assay: (§1) AUC (0 to infinity) in Sprague-Dawley rat at 0.5 mg/kg, iv; assay type: ADME, organism-based; parameters: dose 0.5 mg/kg, route intravenous, time infinity; settings: in vivo
[16] = Clearance in Sprague-Dawley rat at 0.5 mg/kg, iv; assay type: ADME, organism-based; settings: in vivo
[17] = as §1; assay type: ADME, organism-based; parameters: dose 0.5 mg/kg, route intravenous, time infinity; settings: Sprague-Dawley, in vivo
[18] = Glutathione reactivity assessed as GSH adduct formation; assay type: physicochemical

Sequence of Cytochrome P450 2D6 (P10635 whole entry): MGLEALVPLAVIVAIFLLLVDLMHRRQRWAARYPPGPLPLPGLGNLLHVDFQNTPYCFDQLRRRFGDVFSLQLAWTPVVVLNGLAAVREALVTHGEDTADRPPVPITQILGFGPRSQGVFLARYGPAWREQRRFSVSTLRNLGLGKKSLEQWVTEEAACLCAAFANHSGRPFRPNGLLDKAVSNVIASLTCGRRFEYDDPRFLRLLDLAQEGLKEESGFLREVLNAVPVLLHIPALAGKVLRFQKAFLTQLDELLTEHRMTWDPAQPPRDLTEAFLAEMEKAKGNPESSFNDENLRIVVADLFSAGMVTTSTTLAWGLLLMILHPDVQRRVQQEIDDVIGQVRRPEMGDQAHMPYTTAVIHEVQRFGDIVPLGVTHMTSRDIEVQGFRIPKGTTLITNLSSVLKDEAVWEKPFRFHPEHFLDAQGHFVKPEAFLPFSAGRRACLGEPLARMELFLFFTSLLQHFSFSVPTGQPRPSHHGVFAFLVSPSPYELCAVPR
Sequence of Cytochrome P450 3A4 (P08684 whole entry): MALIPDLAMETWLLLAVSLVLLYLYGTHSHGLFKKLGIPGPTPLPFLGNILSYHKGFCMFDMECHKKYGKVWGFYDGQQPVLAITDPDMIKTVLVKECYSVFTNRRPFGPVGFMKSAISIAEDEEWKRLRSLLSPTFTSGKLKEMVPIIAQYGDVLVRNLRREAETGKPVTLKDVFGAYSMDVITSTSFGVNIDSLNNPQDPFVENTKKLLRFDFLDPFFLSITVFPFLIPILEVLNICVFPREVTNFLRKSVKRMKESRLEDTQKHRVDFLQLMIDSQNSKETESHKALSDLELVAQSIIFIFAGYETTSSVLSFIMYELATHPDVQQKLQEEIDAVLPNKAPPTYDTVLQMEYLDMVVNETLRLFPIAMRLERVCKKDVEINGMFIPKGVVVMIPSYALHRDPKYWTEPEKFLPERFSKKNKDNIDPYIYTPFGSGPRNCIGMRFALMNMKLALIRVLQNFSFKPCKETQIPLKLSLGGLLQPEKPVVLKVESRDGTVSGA
Sequence of Cytochrome P450 2C19 (P33261 whole entry): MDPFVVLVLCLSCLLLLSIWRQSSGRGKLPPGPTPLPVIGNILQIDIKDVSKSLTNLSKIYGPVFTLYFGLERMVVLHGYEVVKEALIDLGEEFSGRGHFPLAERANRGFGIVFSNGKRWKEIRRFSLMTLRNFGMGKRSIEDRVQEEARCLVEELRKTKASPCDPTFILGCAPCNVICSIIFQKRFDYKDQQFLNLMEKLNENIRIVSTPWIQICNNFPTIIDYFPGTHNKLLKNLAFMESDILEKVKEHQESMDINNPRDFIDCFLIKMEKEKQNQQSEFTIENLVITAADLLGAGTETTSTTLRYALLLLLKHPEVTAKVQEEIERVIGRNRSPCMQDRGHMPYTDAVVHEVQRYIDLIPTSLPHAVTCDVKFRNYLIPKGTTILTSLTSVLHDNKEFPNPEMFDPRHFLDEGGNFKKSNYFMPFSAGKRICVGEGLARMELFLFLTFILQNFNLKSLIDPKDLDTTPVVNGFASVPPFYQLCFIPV
Sequence of Cytochrome P450 2C9 (P11712 whole entry): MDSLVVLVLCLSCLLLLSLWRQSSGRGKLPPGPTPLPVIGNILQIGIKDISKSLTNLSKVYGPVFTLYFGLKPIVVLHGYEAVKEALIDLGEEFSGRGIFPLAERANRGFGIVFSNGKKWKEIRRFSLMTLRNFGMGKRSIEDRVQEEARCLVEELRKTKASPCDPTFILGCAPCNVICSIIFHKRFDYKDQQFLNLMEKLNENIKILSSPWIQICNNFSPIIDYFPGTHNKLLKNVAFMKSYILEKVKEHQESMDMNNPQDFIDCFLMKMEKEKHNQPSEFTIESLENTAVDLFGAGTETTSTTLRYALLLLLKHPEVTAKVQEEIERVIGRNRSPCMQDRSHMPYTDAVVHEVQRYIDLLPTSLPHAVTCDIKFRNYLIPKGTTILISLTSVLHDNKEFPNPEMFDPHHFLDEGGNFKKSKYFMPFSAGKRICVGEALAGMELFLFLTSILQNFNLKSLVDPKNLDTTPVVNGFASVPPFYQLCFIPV
Sequence of Voltage-gated inwardly rectifying potassium channel KCNH2 (Q12809 whole entry): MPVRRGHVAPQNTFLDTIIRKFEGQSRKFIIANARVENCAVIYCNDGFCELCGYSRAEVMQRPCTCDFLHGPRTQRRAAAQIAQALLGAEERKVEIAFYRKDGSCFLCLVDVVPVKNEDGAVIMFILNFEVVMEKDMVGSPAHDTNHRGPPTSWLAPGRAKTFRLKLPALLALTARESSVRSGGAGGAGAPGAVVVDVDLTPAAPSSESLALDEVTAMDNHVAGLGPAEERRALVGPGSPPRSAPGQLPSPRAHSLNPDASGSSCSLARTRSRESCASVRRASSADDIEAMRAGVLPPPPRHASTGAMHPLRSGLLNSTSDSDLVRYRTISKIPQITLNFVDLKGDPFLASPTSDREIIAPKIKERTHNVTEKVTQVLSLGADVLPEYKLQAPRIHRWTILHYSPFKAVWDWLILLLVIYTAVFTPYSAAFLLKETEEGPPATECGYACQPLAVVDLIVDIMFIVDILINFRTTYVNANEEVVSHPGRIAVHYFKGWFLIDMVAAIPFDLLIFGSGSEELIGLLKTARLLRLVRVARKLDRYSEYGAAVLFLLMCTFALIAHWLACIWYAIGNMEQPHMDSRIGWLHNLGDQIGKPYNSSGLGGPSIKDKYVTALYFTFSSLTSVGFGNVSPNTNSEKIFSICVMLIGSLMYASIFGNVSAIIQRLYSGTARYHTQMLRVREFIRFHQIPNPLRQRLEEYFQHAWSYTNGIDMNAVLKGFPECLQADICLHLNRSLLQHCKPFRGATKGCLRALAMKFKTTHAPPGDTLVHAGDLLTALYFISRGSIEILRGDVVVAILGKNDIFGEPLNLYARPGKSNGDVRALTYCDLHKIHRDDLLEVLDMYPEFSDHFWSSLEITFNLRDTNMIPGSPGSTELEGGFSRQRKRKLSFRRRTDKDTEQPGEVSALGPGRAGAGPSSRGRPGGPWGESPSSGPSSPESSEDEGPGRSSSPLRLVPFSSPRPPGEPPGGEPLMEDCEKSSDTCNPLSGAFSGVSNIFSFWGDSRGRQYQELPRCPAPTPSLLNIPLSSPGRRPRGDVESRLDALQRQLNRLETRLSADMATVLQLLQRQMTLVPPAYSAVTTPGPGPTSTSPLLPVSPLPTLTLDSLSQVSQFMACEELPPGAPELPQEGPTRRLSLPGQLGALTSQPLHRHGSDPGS

SMILES | half-life [1] [min] | INH (Cytochrome P450 2C8) [µM] | half-life [2] [min] | INH (Cytochrome P450 2C19) [µM] | INH (Cytochrome P450 3A4) [µM] | INH (Cytochrome P450 2C9) [µM] | INH (Cytochrome P450 2D6) [µM] | solubility thermodynamic at 10000 µM [4] [µM] | INH (Cytochrome P450 1A2) [µM] | bioavailability [5] [%] | Emax at 16 h, 10 µM (PXR (NR1I2) [6]) [%] | solubility thermodynamic [7] [µM] | AUC(0-inf) [8] [ng·h/mL] | half-life [9] [min] | Tmax [10] [min] | half-life [11] [min] | Cmax [12] [ng/mL] | Emax at 16 h, 1 µM (PXR (NR1I2) [13]) [%] | C0 [14] [ng/mL] | Vd [15] [L/kg] | other results
CC(C)(C)NS(=O)(=O)c1ccc(-c2sc(C(=O)NCCN3CCOCC3)nc2CC2CCCCC2)c2ccccc12 | 5.1 | 2.8 | < 4 | 1.1 | 7.1 | 0.4 | 6.2 | < 4 | > 10 | – | – | – | – | – | – | – | – | – | – | – | inhibition (INH) [3]: Not Active
CC(C)(C)NS(=O)(=O)c1ncc(-c2sc(C(=O)N[C@H]3C[C@H](C(=O)O)C3)nc2CC2CCCCC2)c2ccccc12 | 61 | > 10 | 77 | > 10 | > 10 | > 10 | > 10 | 13 (≈ 7.6 µg/mL) | > 10 | 7.5 | 102 | 382 (≈ 223 µg/mL) | 87 | 150 | 24 | 18 | 52 | 18 | 2800 | 1.1 | AUC (Rattus norvegicus): 232 ng·h/mL
CCC(C)(C)NS(=O)(=O)c1ccc(-c2sc(C(=O)N[C@H]3C[C@H](C(=O)O)C3)nc2CC2CCCCC2)c(Cl)c1C | 44 | 1.8 | 27 | > 10 | > 10 | 3.2 | > 10 | < 1 | > 10 | 18 | 34 | 59 (≈ 35.2 µg/mL) | 142 | 186 | 48 | 24 | 52 | 21 | 1410 | 2.1 | clearance [16]: 98.8 mL/min/kg; AUC(0-inf) [17]: 170 ng·h/mL
CC(C)(C)NS(=O)(=O)c1ccc(-c2sc(C(=O)N3CC4(C3)CS(=O)(=O)C4)nc2CC2CCCCC2)c(Cl)c1Cl | 55 | > 10 | 18 | > 10 | > 10 | 1.6 | > 10 | < 1 | > 10 | 87.7 | 160 | < 4 | 1580 | 180 | 60 | 90 | 269 | 139 | 518 | 4.8 | clearance [16]: 42.5 mL/min/kg; AUC(0-inf) [17]: 360 ng·h/mL
C[C@H](NS(=O)(=O)c1ccc(-c2sc(C(=O)N[C@H]3C[C@H](C(=O)O)C3)nc2CC2CCCCC2)c2ccccc12)C(F)(F)F | – | – | – | – | – | – | – | – | – | – | – | – | – | – | – | – | – | – | – | – | Stability [18]: Stable
